Experimental findings from publication PMC10080691, “Enzyme-Responsive Double-Locked Photodynamic Molecular Beacon for Targeted Photodynamic Anticancer Therapy” (Journal of the American Chemical Society, 2023) are described below.

Series [1] relates to A549 cells. In words: Intracellular ROS generation (H2DCFDA). Particulars: 2 μM 1 h + 6 h, light λ > 610 nm, 23 mW cm-2, 14 J cm-2. In kind it is cell-based, human. The procedure: The enzyme-responsive intracellular ROS generation of 1 was then examined in A549 and HeLa cells using 2′,7′-dichlorodihydrofluorescein diacetate (H2DCFDA) as the ROS fluorescent probe. Once H2DCFDA is internalized, it will be deacetylated by the intracellular esterase, followed by oxidation by the intracellular ROS, leading to the formation of the highly fluorescent 2′,7′-dichlorofluorescein (DCF).[79] The cells were first pretreated with SB-3CT (10 μM) and/or CA-074 Me (25 μM) or simply the neat medium for 2 h, followed by incubation with 1 (2 μM) for a further 1 h. As a negative control, the cells were simply incubated with 14 (2 μM) for 1 h. After being rinsed with PBS, the cells were incubated in the medium for a further 6 h. Finally, the cells were incubated with H2DCFDA (10 μM) for 30 min, followed by dark or light (λ > 610 nm, 23 mW cm^–2, 14 J cm^–2) treatment. […] It can be seen that for the MMP-2-positive A549 cells, the fluorescence due to DCF was in the following order: 1 without pretreatment of the cells with the two inhibitors > 1 with pretreatment of the cells with either one of the two inhibitors > 1 with pretreatment of the cells with both inhibitors ≈ 14. […] This trend, which reflects the extent of recovery of ROS generation, was in accord with that of the fluorescence recovery inside the cells (Figure 5c,d). For the MMP-2-negative HeLa cells, the intracellular fluorescence remained very weak even for 1 without pretreatment of the cells with the two inhibitors because of the intrinsically low MMP levels in the cells. […]
or ER-Tracker Green (Thermo Fisher Scientific Inc., E34251) (1 μM for 15 min) in a serum-free medium at 37 °C. […] All the trackers were excited at 488 nm and their fluorescence was monitored at 500−570 nm, while the DSBDP moiety was excited at 638 nm and its fluorescence was monitored at 650−750nm. The images were digitized and analyzed using a Leica Application Suite X software. […]
at 500−550 nm. The images were digitized and analyzed using a Leica Application Suite X […]

Series [2] relates to A549 tumor-bearing nude mice. In words: In vivo PDT. Also noted: species or system Balb/c nude mice. Particulars: for H&E staining of major organs, Day 14 / H&E staining of tumor, Day 14 / change in body weight over 14 days: intratumoral 20 nmol + laser 680 nm, 180 J cm-2; for change in body weight over 14 days / tumor size over 14 days: n = 4; for tumor size over 14 days: intratumoral 20 nmol, laser 680 nm, 0.3 W cm-2, 10 min (180 J cm-2) at 6 h post-injection. The procedure:
To further examine the in vivo PDT efficacy of 1, A549 tumor-bearing nude mice were first intratumorally injected with 1 or the non-cleavable control 14 (20 nmol) in 20 μL of distilled water containing 7.5% dimethyl sulfoxide (DMSO) and 0.5% Tween 80 (v/v). After 6 h, when the difference in tumoral fluorescence intensity was the largest between the two conjugates (Figure 7b), the tumor was irradiated with a diode laser at 680 nm (0.3 W cm^–2) for 10 min. As another negative control, another group of mice were injected with PBS only without the laser treatment. The tumor size of all mice was monitored continuously for 14 days after the different treatments.
The body weight of the mice was also monitored during the course of these treatments (Figure 7e). […] In addition, the PDT effect on the tumor and major organs was further investigated by hematoxylin and eosin (H&E) staining.
A549 tumor-bearing nude mice were prepared as described above. The length and width of the tumor were measured using a micrometer digital caliper (SCITOP Systems). The tumor volume (mm3) was calculated using the formula: tumor volume = (length × width2)/2. Once the tumors had grown to a size of 80 –100 mm3, 1 or 14 (20 nmol) dissolved in 20 μL of distilled water containing 7.5% DMSO and 0.5% Tween 80 (v/v) was injected to the tumor -bearing mice through intratu moral injection. At 6 h post-injection, the tumor was illuminated with a diode […]
The tumor size o f the nude mice was monitored periodically for the next 14 days. The tumor volumes were also compared with a PBS control group of mice without the light treatment.
Four mice were used for each group. On Day 14 after the PDT treatment, the mice were sacrificed, and the tumor and major organs were harvested. The tissues were fixed with 4% […]
and embedded in paraffin. […]

For `CCN(CC)c1ccc2nc3ccc(/N=N/c4ccc(N(C)CCCNC(=O)OC[C@@H]5[C@@H]6CCc7nnn(CC(=O)NCCCC[C@@H]8NC(=O)CNC(=O)[C@H](CCCCN)NC(=O)[C@H](CCCNC(=N)N)NC(=O)[C@H](C(C)C)NC(=O)CNC(=O)[C@H](CC(C)C)NC(=O)[C@@H]9CCCN9C(=O)[C@H](CCCCN)NC(=O)[C@@H](N)CSCc9cc(COc%10ccc(C%11=C%12C(C)=C(I)C(/C=C/c%13ccc(OCCOCCOCCOC)cc%13)=[N+]%12[B-](F)(F)n%12c(/C=C/c%13ccc(OCCOCCOCCOC)cc%13)c(I)c(C)c%12%11)cc%10)cc(c9)CSC[C@@H](C(N)=O)NC(=O)[C@H](CCCCN)NC(=O)[C@H](CCCCN)NC(=O)CNC(=O)[C@H](CC(C)C)NC(=O)[C@H](Cc9ccccc9)NC(=O)CNC(=O)[C@H](CCCCN)NC(=O)CNC8=O)c7CC[C@@H]65)cc4)cc3[n+](-c3ccccc3)c2c1` [compound 1], the “intracellular ROS generation (DCF fluorescence)” value in series [1] (pretreatment with both SB-3CT (10 μM) and CA-074 Me (25 μM) 2 h) was “could hardly be observed”. Further, in series [2], the “H&E staining of major organs, Day 14” value was “no apparent damage”; the “H&E staining of tumor, Day 14” value is “significant cellular damage and necrosis”; the “change in body weight over 14 days” value is “negligible change”; the “tumor size over 14 days” value is recorded as “greatly reduced”.
On to `CCN(CC)c1ccc2nc3ccc(/N=N/c4ccc(N(C)CCCNC(=O)OC[C@@H]5[C@@H]6CCc7nnn(CC(=O)NCCCC[C@@H]8NC(=O)CNC(=O)[C@H](CCCCN)NC(=O)CNC(=O)CNC(=O)CNC(=O)CNC(=O)CNC(=O)[C@H](CCCCN)NC(=O)[C@@H](N)CSCc9cc(COc%10ccc(C%11=C%12C(C)=C(I)C(/C=C/c%13ccc(OCCOCCOCCOC)cc%13)=[N+]%12[B-](F)(F)n%12c(/C=C/c%13ccc(OCCOCCOCCOC)cc%13)c(I)c(C)c%12%11)cc%10)cc(c9)CSC[C@@H](C(N)=O)NC(=O)[C@H](CCCCN)NC(=O)[C@H](CCCCN)NC(=O)CNC(=O)CNC(=O)CNC(=O)CNC(=O)[C@H](CCCCN)NC(=O)CNC8=O)c7CC[C@@H]65)cc4)cc3[n+](-c3ccccc3)c2c1` [compound 14], for which, in series [1] (no inhibitor pretreatment), the “intracellular ROS generation (DCF fluorescence)” value is “could hardly be observed”. Further, in series [2], the “H&E staining of major organs, Day 14” value is “no apparent damage”; the “H&E staining of tumor, Day 14” value was “no apparent damage”; the “change in body weight over 14 days” value is recorded as “negligible change”; the “tumor size over 14 days” value is reported as “grew continuously”.
